This passage reports EC50 and CC50 results from patent US20250122219A1 (priority 2023, published 2025).

In data set [1] the test system is HIV-1 (IIIB). Kind of data set: Antiviral assay in MT-4 cells. Format: cell-based. The settings on record: Human immunodeficiency virus 1, MT4, 120 h; HIV-1 IIIB in MT-4 cells, 5 days incubation, Cell Titer Glo; read-out: MT4 EC50. In a few lines: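 HIV-1 IIIB-infected MT-4 cells (fresh 1:250 virus stock dilution; mock-infected controls) incubated 5 days at 37 °C with serially diluted compounds in RPMI/10% FBS; 5 μM AZT as positive control. Cell viability read by CellTiter-Glo luminescence as measure of protection from viral replication.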
A general note: In ATP-based viability assays light output follows the ATP content of the culture.

A short description of data set [2]: Cytotoxicity assay in MT-4 cells. Conditions: human; uninfected MT-4 cells, 5 days incubation, Cell Titer Glo; read-out: MT4 CC50. Format: cell-based. In a few lines: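 Uninfected MT-4 cells exposed to serially diluted compounds in RPMI with 10% FBS for 5 days at 37 °C. Viability by Cell Titer Glo chemiluminescence. Puromycin […] as baseline cytotoxicity control.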

As for `CCCCCCCCCCCCCCCC(=O)OCOc1c2n(cc(C(=O)NCc3ccc(F)cc3F)c1=O)[C@@H]1CN(C2=O)[C@@H](C)CC[C@]12CC(OC)=NO2` [Example 104, (((3′S,5S,7′R)-10′-((2,4-difluorobenzyl)carbamoyl)-3-methoxy-3′-methyl-1′,11′-dioxo-1′,4′,5′,11′-tetrahydro-3′H,4H,7′H-spiro[isoxazole-5,6′-[2,7]methanopyrido[1,2-a][1,4]diazonin]-12′-yl)oxy)methyl palmitate], in data set [1], the EC50 (usually the concentration needed to bring the measured effect to its halfway point) amounted to 11.7 nM. For the same compound, the CC50 – broadly, the concentration giving 50% cytotoxicity – at 5 days in data set [2] is no less than 50000 nM.

`CCCCCCCCCCCCCCCC(=O)OCOc1c2n(cc(C(=O)NCc3ccc(F)cc3F)c1=O)[C@@H]1CN(C2=O)[C@@H](C)CC[C@]12CC(C)=NO2` [Example 105, (((3′S,5S,7′R)-10′-((2,4-difluorobenzyl)carbamoyl)-3,3′-dimethyl-1′,11′-dioxo-1′,4′,5′,11′-tetrahydro-3′H,4H,7′H-spiro[isoxazole-5,6′-[2,7]methanopyrido[1,2-a][1,4]diazonin]-12′-yl)oxy)methyl palmitate]: in data set [1], the EC50 is 22.5 nM. The CC50 at 5 days in data set [2] was no less than 50000 nM.

Take `CCCCCCCCCCCCCCCCCC(=O)OCOc1c2n(cc(C(=O)NCc3ccc(F)cc3F)c1=O)[C@@H]1CN(C2=O)[C@@H](C)CC[C@]12CC(OC)=NO2` [Example 106, (((3′S,5S,7′R)-10′-((2,4-difluorobenzyl)carbamoyl)-3-methoxy-3′-methyl-1′,11′-dioxo-1′,4′,5′,11′-tetrahydro-3′H,4H,7′H-spiro[isoxazole-5,6′-[2,7]methanopyrido[1,2-a][1,4]diazonin]-12′-yl)oxy)methyl stearate]: the EC50 in data set [1] is 27.2 nM. Also, the CC50 at 5 days in data set [2] is no less than 50000 nM.

`CCCCCCCCCCCCCCCCCC(=O)OCOc1c2n(cc(C(=O)NCc3ccc(F)cc3F)c1=O)[C@@H]1CN(C2=O)[C@@H](C)CC[C@]12CC(C)=NO2` [Example 107, (((3′S,5S,7′R)-10′-((2,4-difluorobenzyl)carbamoyl)-3,3′-dimethyl-1′,11′-dioxo-1′,4′,5′,11′-tetrahydro-3′H,4H,7′H-spiro[isoxazole-5,6′-[2,7]methanopyrido[1,2-a][1,4]diazonin]-12′-yl)oxy)methyl stearate]: in data set [1], the EC50 amounted to 32.3 nM. Besides, in data set [2], the CC50 at 5 days is no less than 50000 nM.

Turning to `COC1=NO[C@@]2(CC[C@H](C)N3C[C@H]2n2cc(C(=O)NCc4ccc(F)cc4F)c(=O)c(OCOC(=O)CC(C)C)c2C3=O)C1` [Example 110, (((3′S,5S,7′R)-10′-((2,4-difluorobenzyl)carbamoyl)-3-methoxy-3′-methyl-1′,11′-dioxo-1′,4′,5′,11′-tetrahydro-3′H,4H,7′H-spiro[isoxazole-5,6′-[2,7]methanopyrido[1,2-a][1,4]diazonin]-12′-yl)oxy)methyl 3-methylbutanoate], the EC50 in data set [1] stood at 1.5 nM. The CC50 at 5 days in data set [2] is 16400 nM.

Regarding `CC1=NO[C@@]2(CC[C@H](C)N3C[C@H]2n2cc(C(=O)NCc4ccc(F)cc4F)c(=O)c(OCOC(=O)CC(C)C)c2C3=O)C1` [Example 111, (((3′S,5S,7′R)-10′-((2,4-difluorobenzyl)carbamoyl)-3,3′-dimethyl-1′,11′-dioxo-1′,4′,5′,11′-tetrahydro-3′H,4H,7′H-spiro[isoxazole-5,6′-[2,7]methanopyrido[1,2-a][1,4]diazonin]-12′-yl)oxy)methyl 3-methylbutanoate], the EC50 in data set [1] was found to be 1.95 nM. The CC50 at 5 days in data set [2] was determined as 13800 nM.

`COC1=NO[C@@]2(CC[C@H](C)N3C[C@H]2n2cc(C(=O)NCc4ccc(F)cc4F)c(=O)c(OCOC(=O)CCCC(C)C)c2C3=O)C1` [Example 113, (((3′S,5S,7′R)-10′-((2,4-difluorobenzyl)carbamoyl)-3-methoxy-3′-methyl-1′,11′-dioxo-1′,4′,5′,11′-tetrahydro-3′H,4H,7′H-spiro[isoxazole-5,6′-[2,7]methanopyrido[1,2-a][1,4]diazonin]-12′-yl)oxy)methyl 5-methylhexanoate]: the EC50 in data set [1] was found to be 1.78 nM. Further, the CC50 at 5 days in data set [2] is 20300 nM.

As for `COC1=NO[C@@]2(CC[C@H](C)N3C[C@H]2n2cc(C(=O)NCc4ccc(F)cc4F)c(=O)c(OCOC(=O)CCCCC(C)C)c2C3=O)C1` [Example 114, (((3′S,5S,7′R)-10′-((2,4-difluorobenzyl)carbamoyl)-3-methoxy-3′-methyl-1′,11′-dioxo-1′,4′,5′,11′-tetrahydro-3′H,4H,7′H-spiro[isoxazole-5,6′-[2,7]methanopyrido[1,2-a][1,4]diazonin]-12′-yl)oxy)methyl 6-methylheptanoate], in data set [1], the EC50 is 3.89 nM. In addition, the CC50 at 5 days in data set [2] turned out to be 19700 nM.

`CC1=NO[C@@]2(CC[C@H](C)N3C[C@H]2n2cc(C(=O)NCc4ccc(F)cc4F)c(=O)c(OCOC(=O)CCCCC(C)C)c2C3=O)C1` [Example 115, (((3′S,5S,7′R)-10′-((2,4-difluorobenzyl)carbamoyl)-3,3′-dimethyl-1′,11′-dioxo-1′,4′,5′,11′-tetrahydro-3′H,4H,7′H-spiro[isoxazole-5,6′-[2,7]methanopyrido[1,2-a][1,4]diazonin]-12′-yl)oxy)methyl 6-methylheptanoate]: the EC50 in data set [1] turned out to be 3.62 nM. The cytotoxic concentration (CC50) at 5 days in data set [2] was 16200 nM.

Take `COC1=NO[C@@]2(CC[C@H](C)N3C[C@H]2n2cc(C(=O)NCc4ccc(F)cc4F)c(=O)c(OCOC(=O)CCCCCC(C)C)c2C3=O)C1` [Example 116, (((3′S,5S,7′R)-10′-((2,4-difluorobenzyl)carbamoyl)-3-methoxy-3′-methyl-1′,11′-dioxo-1′,4′,5′,11′-tetrahydro-3′H,4H,7′H-spiro[isoxazole-5,6′-[2,7]methanopyrido[1,2-a][1,4]diazonin]-12′-yl)oxy)methyl 7-methyloctanoate]: the EC50 in data set [1] was 4.17 nM. Also, the CC50 at 5 days in data set [2] was found to be 27200 nM.

Regarding `CC1=NO[C@@]2(CC[C@H](C)N3C[C@H]2n2cc(C(=O)NCc4ccc(F)cc4F)c(=O)c(OCOC(=O)CCCCCC(C)C)c2C3=O)C1` [Example 117, (((3′S,5S,7′R)-10′-((2,4-difluorobenzyl)carbamoyl)-3,3′-dimethyl-1′,11′-dioxo-1′,4′,5′,11′-tetrahydro-3′H,4H,7′H-spiro[isoxazole-5,6′-[2,7]methanopyrido[1,2-a][1,4]diazonin]-12′-yl)oxy)methyl 7-methyloctanoate], the concentration for a half-maximal effect (EC50) in data set [1] amounted to 2.84 nM. Besides, the cytotoxic concentration (CC50) at 5 days in data set [2] was no less than 50000 nM.

Turning to `CC1=NO[C@@]2(CC[C@H](C)N3C[C@H]2n2cc(C(=O)NCc4ccc(F)cc4F)c(=O)c(OCOC(=O)CCCC(C)C)c2C3=O)C1` [Example 118], the EC50 in data set [1] was found to be 2.19 nM. In data set [2], the CC50 at 5 days was 18200 nM.

Take `COC1=NO[C@@]2(CC[C@H](C)N3C[C@H]2n2cc(C(=O)NCc4ccc(F)cc4F)c(=O)c(OCOC(=O)CCCCCCC(C)C)c2C3=O)C1` [Example 119, (((3′S,5S,7′R)-10′-((2,4-difluorobenzyl)carbamoyl)-3-methoxy-3′-methyl-1′,11′-dioxo-1′,4′,5′,11′-tetrahydro-3′H,4H,7′H-spiro[isoxazole-5,6′-[2,7]methanopyrido[1,2-a][1,4]diazonin]-12′-yl)oxy)methyl 8-methylnonanoate]: the EC50 in data set [1] was 2.87 nM. Besides, the CC50 at 5 days in data set [2] amounted to 43800 nM.

With `CC1=NO[C@@]2(CC[C@H](C)N3C[C@H]2n2cc(C(=O)NCc4ccc(F)cc4F)c(=O)c(OCOC(=O)CCCCCCC(C)C)c2C3=O)C1` [Example 120, (((3′S,5S,7′R)-10′-((2,4-difluorobenzyl)carbamoyl)-3,3′-dimethyl-1′,11′-dioxo-1′,4′,5′,11′-tetrahydro-3′H,4H,7′H-spiro[isoxazole-5,6′-[2,7]methanopyrido[1,2-a][1,4]diazonin]-12′-yl)oxy)methyl 8-methylnonanoate], the EC50 in data set [1] was 2.04 nM. Also, in data set [2], the CC50 at 5 days was 42300 nM.

Consider `COC(=O)Oc1c2n(cc(C(=O)NCc3ccc(F)cc3F)c1=O)[C@@H]1CN(C2=O)[C@@H](C)CC[C@]12CC(C)=NO2` [Example 121, (3′S,5S,7′R)-10′-((2,4-difluorobenzyl)carbamoyl)-3,3′-dimethyl-1′,11′-dioxo-1′,4′,5′,11′-tetrahydro-3′H,4H,7′H-spiro[isoxazole-5,6′-[2,7]methanopyrido[1,2-a][1,4]diazonin]-12′-yl methyl carbonate], for which, in data set [1], the EC50 came out at 1.17 nM. The CC50 at 5 days in data set [2] amounted to 18900 nM.

With `CCOC(=O)Oc1c2n(cc(C(=O)NCc3ccc(F)cc3F)c1=O)[C@@H]1CN(C2=O)[C@@H](C)CC[C@]12CC(C)=NO2` [Example 123, (3′S,5S,7′R)-10′-((2,4-difluorobenzyl)carbamoyl)-3,3′-dimethyl-1′,11′-dioxo-1′,4′,5′,11′-tetrahydro-3′H,4H,7′H-spiro[isoxazole-5,6′-[2,7]methanopyrido[1,2-a][1,4]diazonin]-12′-yl ethyl carbonate], the half-maximal effective concentration (EC50) in data set [1] came to 1.73 nM. The CC50 at 5 days in data set [2] is 14100 nM.

Regarding `CCOC(=O)Oc1c2n(cc(C(=O)NCc3ccc(F)cc3F)c1=O)[C@@H]1CN(C2=O)[C@@H](C)CC[C@]12CC(OC)=NO2` [Example 124, (3′S,5S,7′R)-10′-((2,4-difluorobenzyl)carbamoyl)-3-methoxy-3′-methyl-1′,11′-dioxo-1′,4′,5′,11′-tetrahydro-3′H,4H,7′H-spiro[isoxazole-5,6′-[2,7]methanopyrido[1,2-a][1,4]diazonin]-12′-yl ethyl carbonate], the EC50 in data set [1] came to 0.898 nM. Also, the CC50 at 5 days in data set [2] amounted to 17100 nM.
